Data reported in patent US20180200233A1, “COMPOSITIONS FOR PREVENTING CANCERS ASSOCIATED WITH HUMAN PAPILLOMA VIRUSES” (Loma Linda University, priority 2015, published 2018).

What was measured:
[1] = system: caspase 3/7 activity in SiHa cells; test: Caspase 3/7 activity assay in SiHa cells; assay type: cell-based, human; details: 100 μM myricetin or 50 μM spinacine 4 h, TRAIL 100 ng/ml + cycloheximide, 0-6 h
Experimental: FIGS. 4A-C are graphs showing that myricetin and spinacine (5) increased caspase 3/7 activity in SiHa cells following treatment with TRAIL and chemotherapy drugs. SiHa cells (2×10^4 cells per well) were seeded into a 96-well plate and allowed to incubate overnight, then pre-treated with 100 μM of myricetin or 50 μM of spinacine for 4 h. (FIG. 4A) TRAIL (100 ng/ml), along with cycloheximide (5 μg/ml), (FIG. 4B) cisplatin (50 μM), or (FIG. 4C) doxorubicin (2 μM) were added respectively. Caspase 3/7 activity was measured after 0, 1.5, 3, and 6 hours using the […] assay. Activity at 0 h of treatment was set at 100% for each group. […]
Activation of caspase 3/7 is an essential marker for both extrinsic and intrinsic apoptosis, and can be used to determine whether cell death occurs through the apoptotic pathway. […] To test this, caspase 3/7 activity was measured in SiHa cells following TRAIL, cisplatin and doxorubicin treatment in the presence or absence of myricetin or spinacine.
Cells were plated into 96-well plates at a density of 2×10^4 cells per well and incubated overnight. […] Caspase 3/7 activity was measured using the […] for caspase 3/7 activity (Promega, Fitchburg, Wis., USA) following the manufacturer's instructions. […] The resulting difference was expressed as a percentage of the caspase activity of the untreated cells.

[2] = Galli et al. 1989, 13-week oral study in rats, spinacine hydrochloride; cited from earlier work
GST-E6 = target: T1, GST-E6 (Human papillomavirus type 16, UniProt P03126); test: Direct binding to E6 (FIG. 9); design: species or system HPV 16
T1 construct: made in house
T1 sequence (P03126 whole entry): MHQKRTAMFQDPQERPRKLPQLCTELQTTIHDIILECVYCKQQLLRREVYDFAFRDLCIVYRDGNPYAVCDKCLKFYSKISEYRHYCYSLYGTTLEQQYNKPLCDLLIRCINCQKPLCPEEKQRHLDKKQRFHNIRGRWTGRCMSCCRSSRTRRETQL

[3] = system: UPCI-SCC90-UP-Clone 35 (#90) cells; test: MTT cell viability, HPV+ HNSCC cell line #90 with doxorubicin; assay type: cell-based; details: 2 μM doxorubicin
Experimental: FIGS. 8A-B includes graphs showing myricetin and spinacine (5) re-sensitized HPV^+, but not HPV^−, HNSCC cell lines to treatment with doxorubicin. One HPV^− (FIG. 8A; #84) and one HPV^+ (FIG. 8B; #90) head and neck cancer cell line (2×10^4 cells per well) were seeded into 96-well plates and allowed to incubate overnight, then cells were pre-treated with myricetin or spinacine (0-12.5 μM) for 4 h. 2 μM of doxorubicin was added and cells were allowed to incubate overnight. Cell viability was measured by MTT assay, and the viability of cells untreated with small molecules was set at 100%. Experiments were performed in triplicate, and error bars indicate the standard deviation.
The results described above indicate that myricetin and spinacine sensitize HPV^+ HNSCC cells to TRAIL-induced apoptosis. To determine whether this sensitization also occurs in the context of chemotherapeutic agents, several HNSCC cell lines were tested for their responses to combination treatments.
The extracellular domain of human TRAIL was cloned into a pTriEx expression plasmid containing N-terminal Hisx6 tag. His-TRAIL was expressed in the E. coli BL-21 pLys strain and purified as previously described. […] All experiments were repeated at least three times (three biological replicates, carried out on different days), with each experimental group measured in triplicate within each of these individual experiments. […]

GST-E6/His-caspase 8 = target: T2, GST-E6/His-caspase 8 (Human papillomavirus type 16, UniProt P03126); details: Yuan et al. 2012; cited from earlier work
T2 construct: made in house
T2 sequence (P03126 whole entry): as above

C33A cells = test: MTT cell viability, HPV- C33A cells with TRAIL; assay type: cell-based, human; details: 100 μM myricetin or 50 μM spinacine for 4 h
Experimental: FIGS. 5A-B are graphs showing myricetin and spinacine (5) re-sensitized HPV^+, but not HPV^−, cells to treatment with TRAIL. SiHa (2×10^4 cells per well) and C33A cells (1×10^4 cells per well) were seeded into a 96-well plate and allowed to incubate overnight, then cells were pre-treated in the presence or absence of myricetin (100 μM) (FIG. 5A) or spinacine (50 μM) (FIG. 5B) for 4 h. The indicated concentration of TRAIL, along with cycloheximide (5 μg/ml) was added and cells were allowed to incubate overnight. Cell viability was measured by MTT assay, and the viability of cells untreated with TRAIL was set at 100%. Experiments were performed in triplicate, and error bars indicate the standard deviation.
The extracellular domain of human TRAIL was cloned into a pTriEx expression plasmid containing N-terminal Hisx6 tag. His-TRAIL was expressed in the E. coli BL-21 pLys strain and purified as previously described. Doxorubicin and cisplatin were purchased from Sigma. His-TRAIL, doxorubicin, and cisplatin were diluted in PBS to the desired concentration before using. […] All experiments were repeated at least three times (three biological replicates, carried out on different days), with each experimental group measured in triplicate within each of these individual experiments. […]

O=C(O)C1Cc2[nH]cnc2CN1 (stereo not drawn) [Compound 5, 4,5,6,7-Tetrahydro-1H-imidazo(4,5-c)pyridine-6-carboxylic acid]
caspase 3/7 activity when combined with TRAIL (in words) [1]: increased significantly | safety and tolerability (in words) [2]: safe, well-tolerated | binding to GST-E6 (in words) (GST-E6; FIG. 9): able to bind to GST-E6 | N (binding stoichiometry) (GST-E6; spinacine binding to GST-E6, FIG. 9): about 0.5 | cell death of HPV+ #90 cells with doxorubicin plus small molecule (in words) ([3]; small molecules 0-12.5 μM): higher efficiency than did myricetin | sensitization of #90 to doxorubicin ([3]; concentration of 12.5 μM): up to 50%

O=c1c(O)c(-c2cc(O)c(O)c(O)c2)oc2cc(O)cc(O)c12 [Myricetin, reference compound]
caspase 3/7 activity when combined with TRAIL (in words) [1]: increased significantly | inhibition of the E6/caspase 8 interaction in vitro (in words) (GST-E6/His-caspase 8): can inhibit the E6/caspase 8 interaction in vitro | response of C33A cells to TRAIL-mediated apoptosis after pre-treatment (in words) (C33A cells): remained resistant
